In patent US10730863B2, “Bridged bicyclic compounds as farnesoid X receptor modulators” (BRISTOL-MYERS SQUIBB COMPANY, priority 2017, dated 2020):

The compounds below were run against FXR (Homo sapiens (Human), UniProt Q96RI1) (assay: FXR EC50 (FXR agonist activity reported with each example)).
FXR, sequence (Q96RI1 262-486): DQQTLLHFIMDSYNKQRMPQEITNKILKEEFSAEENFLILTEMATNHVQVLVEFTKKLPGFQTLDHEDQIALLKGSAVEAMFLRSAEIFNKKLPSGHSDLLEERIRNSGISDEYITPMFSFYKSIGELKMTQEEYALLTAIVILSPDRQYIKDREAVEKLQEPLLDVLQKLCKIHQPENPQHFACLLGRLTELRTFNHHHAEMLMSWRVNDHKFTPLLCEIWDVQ
Type: cell-based
`O=C(O)c1cc(OC(F)F)cc(-c2noc(C34CCC(/C=C/c5c(-c6c(Cl)cncc6Cl)noc5C5CC5)(CC3)CO4)n2)c1` [Example 479, (E)-3-(5-(4-(2-(5-cyclopropyl-3-(3,5-dichloropyridin-4-yl)isoxazol-4-yl)vinyl)-2-oxabicyclo[2.2.2]octan-1-yl)-1,2,4-oxadiazol-3-yl)-5-(difluoromethoxy)benzoic acid] was tested, and the EC50 was 360 nM. In the case of `CC(C)(C(N)=O)c1ccc(C23CCC(/C=C/c4c(-c5ccccc5C(F)(F)F)noc4C4CC4)(CC2)CO3)cc1` [Example 480, (E)-2-(4-(4-(2-(5-cyclopropyl-3-(2-(trifluoromethyl)phenyl)isoxazol-4-yl)vinyl)-2-oxabicyclo[2.2.2]octan-1-yl)phenyl)-2-methylpropanamide], the EC50 is reported as 1000 nM. `CC(C)(C(N)=O)c1ccc(C23CCC(/C=C/c4c(-c5c(Cl)cncc5Cl)noc4C4CC4)(CC2)CO3)cc1` [Example 481, (E)-2-(4-(4-(2-(5-cyclopropyl-3-(3,5-dichloropyridin-4-yl)isoxazol-4-yl)vinyl)-2-oxabicyclo[2.2.2]octan-1-yl)phenyl)-2-methylpropanamide] gave an EC50 of 510 nM. `CC(C)(C(=O)O)c1ccc(C23CCC(/C=C/c4c(-c5c(Cl)cncc5Cl)noc4C4CC4)(CC2)CO3)cc1` [Example 482, (E)-2-(4-(4-(2-(5-cyclopropyl-3-(3,5-dichloropyridin-4-yl)isoxazol-4-yl)vinyl)-2-oxabicyclo[2.2.2]octan-1-yl)phenyl)-2-methylpropanoic acid] gave an EC50 of 950 nM. Work on `COc1cncc(Cl)c1-c1noc(C2CC2)c1/C=C/C12CCC(c3ccc(C(C)(C)C(=O)O)cc3)(CC1)OC2` [Example 483, (E)-2-(4-(4-(2-(3-(3-chloro-5-methoxypyridin-4-yl)-5-cyclopropylisoxazol-4-yl)vinyl)-2-oxabicyclo[2.2.2]octan-1-yl)phenyl)-2-methylpropanoic acid] yielded an EC50 of 4500 nM. Work on `O=C(O)c1cccc(OCC23CCC(COCc4c(-c5c(Cl)cccc5Cl)noc4C4CC4)(CC2)CC3)c1` [Example 484, 3-((4-(((5-cyclopropyl-3-(2,6-dichlorophenyl)isoxazol-4-yl)methoxy)methyl)bicyclo[2.2.2]octan-1-yl)methoxy)benzoic acid] yielded an EC50 of 200 nM. With `O=C(O)c1cc(-c2noc(C34CCC(COCc5c(-c6c(Cl)cncc6Cl)noc5C5CC5)(CC3)CC4)n2)cc(C(F)(F)F)c1` [Example 485, 3-(5-(4-(((5-cyclopropyl-3-(3,5-dichloropyridin-4-yl)isoxazol-4-yl)methoxy)methyl)bicyclo[2.2.2]octan-1-yl)-1,2,4-oxadiazol-3-yl)-5-(trifluoromethyl)benzoic acid] the EC50 was 380 nM. `O=C(O)c1ccc(F)c(-c2noc(C34CCC(COCc5c(-c6c(Cl)cncc6Cl)noc5C5CC5)(CC3)CC4)n2)c1` [Example 486, 3-(5-(4-(((5-cyclopropyl-3-(3,5-dichloropyridin-4-yl)isoxazol-4-yl)methoxy)methyl)bicyclo[2.2.2]octan-1-yl)-1,2,4-oxadiazol-3-yl)-4-fluorobenzoic acid] was tested, and the EC50 was 2700 nM. Compound `COc1ccc(C(=O)O)cc1-c1noc(C23CCC(COCc4c(-c5c(Cl)cncc5Cl)noc4C4CC4)(CC2)CC3)n1` [Example 487, 3-(5-(4-(((5-cyclopropyl-3-(3,5-dichloropyridin-4-yl)isoxazol-4-yl)methoxy)methyl)bicyclo[2.2.2]octan-1-yl)-1,2,4-oxadiazol-3-yl)-4-methoxybenzoic acid] has an EC50 of 5400 nM. `N#Cc1cc(C(F)(F)F)cc(C23CCC(COCc4c(-c5c(Cl)cncc5Cl)noc4C4CC4)(CC2)CO3)c1` [Example 488, 3-(4-(((5-cyclopropyl-3-(3,5-dichloropyridin-4-yl)isoxazol-4-yl)methoxy)methyl)-2-oxabicyclo[2.2.2]octan-1-yl)-5-(trifluoromethyl)benzonitrile] gave an EC50 of 2400 nM.
